# Experimental data taken from publication PMC12867150, “A fungi-derived cyclic peptide enhances Th9-mediated antitumor immunity by targeting ZAP70 and SREBP1” (The Journal of Clinical Investigation, 2025).
# Several values for one entry are separate records, joined by “and”; a condition that tells them apart may be missing. Identical values can stand only once.
# Legend:
# Assay type in all cases: cell-based, mouse
# gene sets in Th9 cells = experiment: GSEA / pathway enrichment of RNA-seq data; conditions: result in words
# Procedure: GSEA was performed using the clusterProfiler R package (v4.12.6), with curated gene sets obtained from the Gene Ontology and Kyoto Encyclopedia of Genes and Genomes databases. Enrichment plots were generated using the GseaVis R package (v0.1.0) to facilitate data visualization.
# Th9 cells = experiment: IL-9+ Th9 cells transduced with MIGR1 or SREBP1 vector (S8K-L); conditions: for IL-9 gate number: representative flow plot, Figure S8K; for IL-9 expression of Th9 cells: Supplemental Figure 8L
# Procedure: For murine T cell transduction, MIGR1-based retroviral vector encoding Srebf1 was used. HEK293T cells were transfected with these constructs using Lipofectamine 3000 (Thermo Fisher Scientific) to produce viral particles. Supernatants were collected between 48 and 72 hours after transfection, filtered through a 0.45 μm membrane, and stored at –80°C. Naive murine CD4^+ T cells were activated with plate-bound anti-CD3 (2 μg/mL, clone 17A2, BioXCell) and soluble anti-CD28 (1 μg/mL, clone 37.51, BioXCell) stimulation in the presence of subset-specific polarizing cytokines and then transduced with viral supernatant supplemented with polybrene (10 μg/mL). […]
# Ctrl MIGR1EpACtrl SREBP1EpA
# Figure S8. […]
# (K and L) Flow-cytometric analysis of IL-9 expression in Th9 cells transduced with either control (MIGR1) or SREBP1- […]
# overexpressing vectors, with or without EpA treatment, showing representative plots (K) and quantification of IL-9⁺ cells (L) (n = 3). […]
# (n = 3). Statistical analysis was performed using one-way ANOVA followed by Tukey’s post hoc test (G and H, J, L, N). ns, not significant. Repeated data are presented as mean ± SEM. *p < 0.05, **p < 0.01, ***p < 0.001, ****p < 0.0001.
# Treg cells = experiment: Treg polarization, Foxp3 by flow cytometry (Figure 1I)
# Procedure: Naive CD4^+ T cells were isolated from the spleens of C57BL/6J or CD45.1^+ OT-II mice using the MojoSort Mouse CD4 Naive T Cell Isolation Kit (BioLegend, catalog 480040), following the manufacturer’s protocol. Purified cells were cultured in RPMI-1640 medium supplemented with 10% FBS, 1% penicillin-streptomycin, and 0.1% β-mercaptoethanol (Gibco, catalog 21985023).
# T cell polarization was initiated under plate-bound anti-CD3 (2 μg/mL, clone 17A2, BioXCell, catalog BE0002) and soluble anti-CD28 (1 μg/mL, clone 37.51, BioXCell, catalog BE0015-1) stimulation, with the addition of cytokines and neutralizing antibodies specific to each subset. For Th9 cells, these included IL-4 (10 ng/mL, Peprotech, catalog 400-04), TGF-β (1 ng/mL, EPOTO Biotech, catalog HF-2021), anti–IL-12 (5 μg/mL, clone C17.8, BioXCell, catalog BE0051), and anti–IFN-γ (10 μg/mL, clone XMG1.2, BioXCell, catalog BE0055); for Th1 cells, these included IL-12 (10 ng/mL, GenScript, catalog Z03211-50) and anti–IL-4 (5 μg/mL, clone 11B11, BioXCell, catalog BE0045); for Th2 cells, these included IL-4 (50 ng/mL), anti–IFN-γ (20 μg /mL), anti–IL-12 (5 μg/mL), Th17 cells: IL-6 (20 ng/mL, EPOTO Biotech, catalog MF-1006), TGF-β (1 ng/mL), IL-1β (10 ng/mL, Peprotech, catalog AF-211-11B), anti–IFN-γ (10 μg/mL), anti–IL-12 (5 μg/mL), and anti–IL-4 (5 μg/mL); and for Tregs, these included TGF-β (3 ng/mL). […]
substance,measurement,setting,value
anteiso-C15 Leu7 surfactin [EpA],glycolytic and carbon metabolism pathways,gene sets in Th9 cells,significant enrichment
same,lipid-related pathways,gene sets in Th9 cells,markedly downregulated
same,oxidative phosphorylation-related gene sets,gene sets in Th9 cells,upregulation
same,IL-9 gate number,Th9 cells; MIGR1 control vector,69.8
same,IL-9 expression of Th9 cells,"Th9 cells; MigR1, replicate 1",69.8
same,IL-9 expression of Th9 cells,"Th9 cells; MigR1, replicate 2",68.8
same,IL-9 expression of Th9 cells,"Th9 cells; MigR1, replicate 3",68.6
same,IL-9 gate number,Th9 cells; SREBP1-overexpressing vector,50.3
same,IL-9 expression of Th9 cells,"Th9 cells; SREBP1, replicate 1",50.3
same,IL-9 expression of Th9 cells,"Th9 cells; SREBP1, replicate 2",48.8
same,IL-9 expression of Th9 cells,"Th9 cells; SREBP1, replicate 3",60.7
same,EpA-induced IL-9 increase (protein) upon SREBP1 overexpression,Th9 cells; result in words,markedly suppressed
same,Foxp3 expression under Treg polarization,"Treg cells; EpA 10 μM, individual replicates, n = 4",47.3 and 45.9 and 45.6 and 47.5
same,effect on Treg polarization,Treg cells; result in words,did not affect
